Active and inactive are the calls of the source. The calls are words filed in the database; no cut-off is given here.
Experiments:
[1] = system: MCF7; experiment: Estrogenic activity at human ER-positive MCF7 cells assessed as increase in cell proliferation at 50 uM incubated for 144 hrs by Soto's E-screen assay; assay type: functional, cell-based
[2] = system: MCF7; experiment: Cytotoxicity against human ER-positive MCF7 cells assessed as increase in cell proliferation at 12.5 to 100 uM incubated for 24 hrs; assay type: cell-based; details: mcf7, 24 h, dose 12.5-100 µM
[3] = system: MCF7; experiment: Cytotoxicity against human ER-positive MCF7 cells assessed as reduction in cell proliferation at 50 uM incubated for 144 hrs by Soto's E-screen assay; assay type: cell-based; details: mcf7, 144 h
[4] = system: Rattus norvegicus; experiment: Estrogenic activity in immature rat model assessed as uterine weight at 10 ug/kg, sc (reference value: 37.67 mg); assay type: functional; details: dose 10 µg/kg
[5] = target: T1, Estrogen receptor (Homo sapiens) (UniProt P03372); experiment: Agonist activity at ER in human MCF7 cells assessed as increase in receptor gene activity at 12.5 to 100 uM in presence of ER agonist, 17-beta-estradiol by luciferase reporter gene assay relative to control; assay type: cell-based; details: dose 12.5-100 µM
T1 sequence (whole entry): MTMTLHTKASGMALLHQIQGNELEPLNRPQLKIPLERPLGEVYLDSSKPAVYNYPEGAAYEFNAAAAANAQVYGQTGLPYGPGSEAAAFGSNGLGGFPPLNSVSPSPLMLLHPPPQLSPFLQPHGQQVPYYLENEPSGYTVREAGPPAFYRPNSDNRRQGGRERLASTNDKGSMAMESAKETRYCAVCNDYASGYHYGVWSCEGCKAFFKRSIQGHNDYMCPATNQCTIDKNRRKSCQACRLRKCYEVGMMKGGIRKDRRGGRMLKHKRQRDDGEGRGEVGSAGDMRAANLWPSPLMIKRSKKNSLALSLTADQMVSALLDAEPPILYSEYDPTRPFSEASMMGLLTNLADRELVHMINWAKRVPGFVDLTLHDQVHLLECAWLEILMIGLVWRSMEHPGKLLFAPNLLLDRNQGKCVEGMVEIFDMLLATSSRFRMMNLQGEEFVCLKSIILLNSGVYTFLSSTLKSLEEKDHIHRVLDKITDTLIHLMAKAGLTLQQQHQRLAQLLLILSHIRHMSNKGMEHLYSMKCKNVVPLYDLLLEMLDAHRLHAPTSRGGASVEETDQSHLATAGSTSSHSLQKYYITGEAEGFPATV

[6] = target: T1, Estrogen receptor (Homo sapiens); experiment: Agonist activity at ER in human MCF7 cells assessed as increase in receptor gene activity at 12.5 to 100 uM in presence of ER antagonist, ICI182780 by luciferase reporter gene assay; assay type: cell-based; details: dose 12.5-100 µM
[7] = system: MCF7; experiment: Estrogenic activity at human ER-positive MCF7 cells assessed as cell proliferation at 50 uM incubated for 144 hrs by Soto's E-screen assay relative to control; assay type: functional; details: read-out: Activity
[8] = system: MCF7; experiment: Estrogenic activity at human ER-positive MCF7 cells assessed as increase in cell proliferation at 12.5 to 100 uM incubated for 144 hrs in presence of ER antagonist, ICI182780 by Soto's E-screen assay; assay type: functional, cell-based; details: dose 12.5-100 µM
[9] = system: Rattus norvegicus; experiment: Estrogenic activity in immature rat model assessed as uterine weight at 100 mg/kg, sc administered once daily for 3 days (reference value: 37.67 mg); assay type: functional; details: dose 100 mg/kg/day; time 3 day
[10] = target: T1, Estrogen receptor (Homo sapiens); experiment: Agonist activity at ER in human MCF7 cells assessed as increase in receptor gene activity by luciferase reporter gene assay; assay type: cell-based; details: filed as agonist, dose 12.5-100 µM
[11] = system: MCF7; experiment: Estrogenic activity at human ER-positive MCF7 cells assessed as increase in cell proliferation at 50 uM incubated for 144 hrs in presence of ER antagonist, ICI182780 by Soto's E-screen assay; assay type: functional, cell-based
[12] = system: MCF7; experiment: Cytotoxicity against human ER-positive MCF7 cells assessed as decrease in cell proliferation at 12.5 to 100 uM incubated for 24 hrs; assay type: functional, cell-based; details: for IC50: MCF7, 24 h; for inhibition: dose 12.5-100 µM
[13] = system: MCF7; experiment: Estrogenic activity at human ER-positive MCF7 cells assessed as increase in cell proliferation incubated for 144 hrs by Soto's E-screen assay; assay type: functional, cell-based; details: dose 25-100 µM
[14] = system: MCF7; experiment: Cytotoxicity against human ER-positive MCF7 cells assessed as cell proliferation at 50 uM incubated for 144 hrs by Soto's E-screen assay relative to control; assay type: cell-based; details: mcf7, 144 h

| SMILES | Activity [1] | Activity [2] | Activity [3] | other results |
| --- | --- | --- | --- | --- |
| C[C@@]12C[C@@]3(O)O[C@@H](O1)[C@]1(COC(=O)c4ccccc4)[C@H]3C[C@@]12O[C@@H]1O[C@H](COC(=O)c2ccccc2)[C@@H](O)[C@H](O)[C@H]1O | inactive | Non-Toxic | Non-Toxic | – |
| C[C@@]12C[C@@]3(O)O[C@@H](O1)[C@]1(COC(=O)c4ccc(O)cc4)[C@H]3C[C@@]12O[C@@H]1O[C@H](CO)[C@@H](O)[C@H](O)[C@H]1O | inactive | Non-Toxic | Non-Toxic | – |
| O=C(O)c1ccccc1 [BENZOIC ACID] | inactive | Non-Toxic | Non-Toxic | – |
| C[C@]12CC[C@@H]3c4ccc(O)cc4CC[C@H]3[C@@H]1CC[C@@H]2O [ESTRADIOL] | – | – | – | Activity [4]: 51 mg |
| CCOC(=O)c1cc(O)c(O)c(O)c1 [ETHYLGALLATE] | – | Non-Toxic | – | fold change (FC) [5]: > 2; Activity [6]: inactive; growth at 50 µM [7]: 131%; Activity [8]: inactive; Activity [9]: 43.67 mg; Activity [10]: Dose-Dependent Effect; Activity [11]: inactive; IC50 [12]: 62.5 µM; inhibition [12]: Dose-Dependent Effect; Activity [13]: Dose-Dependent Effect |
| O=C(O)c1cc(O)c(O)c(O)c1 [GALLIC ACID] | – | Non-Toxic | – | IC50 [12]: 17.4 µM; inhibition [12]: Dose-Dependent Effect; Activity [14]: 15.8% |
| C[C@@]12C[C@@]3(O)O[C@@H](O1)[C@]1(COC(=O)c4ccccc4)[C@H]3C[C@@]12O[C@@H]1O[C@H](CO)[C@@H](O)[C@H](O)[C@H]1O [PAEONIFLORIN] | inactive | Non-Toxic | Non-Toxic | – |
| COc1ccc(C(C)=O)c(O)c1 [PAEONOL] | inactive | Non-Toxic | Non-Toxic | – |

Source: ChEMBL document CHEMBL4819049, “Estrogenic activity of ethyl gallate and its potential use in hormone replacement therapy” (Bioorg Med Chem Lett, 2021)
